Measurements from patent US5523223A, “Ketoester reductase for conversion of keto acid esters to optically active hydroxy acid esters” (priority 1992, dated 1996).
Where two headings read alike, the source gives them in different places.

Key:
[1] = system: KERed from C. parapsilosis; test: Substrate spectrum of the KERed; assay type: biochemical, Candida parapsilosis; details: for Rel. Activity: substrate 8 mM, activity with 5-oxo-hexanoic acid ethyl ester = 100%, NADH 0.2 mM, pH 7.9; for Acceptance as substrate by the KERed (in words): reduction with NADH
Experimental: For the following investigation, partially purified enzyme (after Q-sepharose chromatography, 67-times enrichment) was used. […]
5-oxohexanoic acid ethyl ester […]
Corresponding to example 3.B, instead of 5-oxohexanoic acid ethyl ester a series of aromatic and aliphatic ketoesters, ketoacids, ketones, diketones and aldehydes were investigated as to whether they could be reduced enzymatically. For this the compounds were added always in 8 mM final concentration. […] The activity with 5-oxo-hexanoic acid ethyl ester was arbitrarily selected as 100%.

[2] = system: KERed from Candida parapsilosis; test: Kinetic characterization of the KERed; assay type: biochemical
[3] = referred to 2-butanone, partially purified enzyme

| SMILES | Rel. Activity [1] [%] | Km ([2]; partially purified enzyme) [µM] | Vmax [2, 3] | also measured |
| --- | --- | --- | --- | --- |
| COC(=O)CC(C)=O | 67 |  |  |  |
| CCOC(=O)CCCC(C)=O | 100 |  |  |  |
| CC(=O)CCCC(=O)O | 0 |  |  |  |
| CCC(=O)CC(=O)OC | 18 |  |  |  |
| CCOC(=O)CC(=O)C(C)C | 24 |  |  |  |
| CCOC(=O)CC(=O)c1ccccc1 | 0 |  |  |  |
| CCOC(=O)C(C)C(C)=O (stereo not drawn) | 70 |  |  |  |
| CC(=O)CCC(C)=O | 46 |  |  |  |
| O=C1Nc2ccccc2C1=O | 0 |  |  |  |
| O=C1CCCC(=O)C1 | 0 |  |  |  |
| CC1CCC(=O)CC1 | 40 |  |  |  |
| CC1CCCCC1=O (stereo not drawn) | 12 |  |  |  |
| CCOC(=O)C1CCCCC1=O (stereo not drawn) | 16 |  |  |  |
| CC(=O)c1ccccc1Cl | 0 |  |  |  |
| CC(=O)C(C)C | 28 |  |  |  |
| CC(=O)C(C)(C)O | 0 |  |  |  |
| COC(CC(C)=O)OC | 14 |  |  |  |
| O=CC1CCCCC1 | 29 |  |  |  |
| CC(=O)C(Cl)Cl [1,1-Dichloroacetone] |  | 176 | 45% | Acceptance as substrate by the KERed (in words) [1]: acceptable as substrates |
| CCCCO [1-butanol] |  | 2900 | 47% |  |
| CCCO [1-propanol] |  | 3800 | 47% |  |
| CCC(=O)CC(C)=O [2,4-hexanedione] |  |  |  | Acceptance as substrate by the KERed (in words) [1]: acceptable as substrates |

| SMILES | Rel. Activity [1] [%] | Km ([2]; partially purified enzyme) [µM] | Vmax [2, 3] | also measured |
| --- | --- | --- | --- | --- |
| CC(=O)CC(C)=O [2,4-pentanedione] |  |  |  | Acceptance as substrate by the KERed (in words) [1]: acceptable as substrates |
| CCC(C)=O [2-Butanone] |  | 1480 | 100% | Acceptance as substrate by the KERed (in words) [1]: acceptable as substrates; Vmax of the reference substrate ([2]; partially purified enzyme): 6 U mg |
| CCCCCCCCC(C)=O [2-decanone] |  | 3960 | 20% |  |
| CCCCCC(C)=O [2-heptanone] |  | 97 | 58% |  |
| CCCCC(C)=O [2-hexanone] |  | 54 | 53% |  |
| CCC(=O)C(C)C [2-methyl-3-pentanone] |  |  |  | Acceptance as substrate by the KERed (in words) [1]: acceptable as substrates |
| CCCCCCCC(C)=O [2-nonanone] |  | 314 | 45% | Ki ([2]; substrate inhibition observed, read-out: Kis (substrate inhibition)): 24.9 mM |
| CCCCCCC(C)=O [2-octanone] |  | 324 | 62% | Acceptance as substrate by the KERed (in words) [1]: acceptable as substrates |
| CCCC(C)=O [2-pentanone] |  | 141 | 62% | Acceptance as substrate by the KERed (in words) [1]: acceptable as substrates |
| CC(C)O [2-propanol] |  | 2210 | 183% |  |
| CC(=O)C(C)Cl (stereo not drawn) [3-chloro-2-butanone] |  | 442 | 50% | Acceptance as substrate by the KERed (in words) [1]: acceptable as substrates |
| CC(=O)c1cccc(Cl)c1 [3-chloro-aceto-phenone] |  | 15 | 32% | Acceptance as substrate by the KERed (in words) [1]: acceptable as substrates |
| CCCCC(=O)CC [3-heptanone] |  | 5600 | 11% |  |
| CCCC(=O)CC [3-hexanone] |  | 840 | 10% |  |
| CCCCCC(=O)CC [3-octanone] |  | 11200 | 12% |  |
| CC(=O)c1ccc(Br)cc1 [4-bromoacetophenone] |  |  |  | Acceptance as substrate by the KERed (in words) [1]: acceptable as substrates |
| CC(=O)c1ccc(Cl)cc1 [4-chloro-acetophenone] |  | 10 | 19% |  |
| CC(=O)c1ccc(F)cc1 [4-fluoroacetophenone] |  |  |  | Acceptance as substrate by the KERed (in words) [1]: acceptable as substrates |
| CCCC(=O)CCC [4-heptanone] |  | 5300 | 9% |  |
| CC[C@H](C)O [(S)-2-butanol] |  |  |  | Km [2]: 600 µM; Vmax [2]: 210% |
| CC=O [Acetaldehyde] |  | 85 | 129% | Acceptance as substrate by the KERed (in words) [1]: acceptable as substrates |
| CC(C)=O [Acetone] |  |  | 97% | Km [2]: 1060 µM |

| SMILES | Rel. Activity [1] [%] | Km ([2]; partially purified enzyme) [µM] | Vmax [2, 3] | also measured |
| --- | --- | --- | --- | --- |
| CC(=O)c1ccccc1 [Acetophenone] |  | 49 | 22% | Acceptance as substrate by the KERed (in words) [1]: acceptable as substrates |
| CCOC(=O)CC(=O)CC [Ethyl 3-oxopentanoate] |  | 6900 | 17% |  |
| CCOC(=O)CC(=O)CCl [Ethyl 4-chlor-3-oxo-butanoate] |  | 3560 | 10% |  |
| CCOC(=O)CC(=O)C(F)(F)F [Ethyl 4-trifluor-3-oxo-butanoate] |  | 2000 | 11% |  |
| CO [Methanol] |  |  | No Reaction |  |
| NC(=O)C1=CN([C@@H]2O[C@H](COP(=O)(O)OP(=O)(O)OC[C@H]3O[C@@H](n4cnc5c(N)ncnc54)[C@H](O)[C@@H]3O)[C@@H](O)[C@H]2O)C=CC1 [NADH] |  | 38 |  |  |
| NC(=O)C1=CN([C@@H]2O[C@H](COP(=O)(O)OP(=O)(O)OC[C@H]3O[C@@H](n4cnc5c(N)ncnc54)[C@H](OP(=O)(O)O)[C@@H]3O)[C@@H](O)[C@H]2O)C=CC1 [NADPH] |  |  | No Reaction |  |
| COC(OC)C(C)=O [Pyruvaldehyde-Dimethyl-acetal] |  | 189 | 24% |  |
| CC(=O)CC(=O)OC(C)(C)C [Tert.-Butyl 3-oxo-butanoate] |  | 356 | 71% |  |
| CCOC(=O)CC(C)=O [drawing 3] | 76 |  |  |  |
| CCOC(=O)CC(C)=O [drawing 4] | 61 |  |  |  |
| CC(=O)CC(=O)OC(C)(C)C [drawing 5] | 137 |  |  |  |
| CC(=O)CCC(=O)O [drawing 6] | 0 |  |  |  |
| CCOC(=O)CCC(C)=O [drawing 7] | 76 |  |  |  |
| CCOC(=O)CC(=O)C(F)(F)F [drawing 10] | 21 |  |  |  |
| CCOC(=O)CC(=O)CCl [drawing 11] | 92 |  |  |  |
| CCOC(=O)CC(=O)CC [drawing 13] | 32 |  |  |  |
| CCCC(=O)CC(=O)OCC [drawing 14] | 51 |  |  |  |
| CC(=O)CC(C)=O [drawing 18] | 15 |  |  |  |
| CCC(=O)CC(C)=O [drawing 19] | 46 |  |  |  |
| CC(=O)c1ccccc1 [drawing 26] | 34 |  |  |  |
| CC(=O)c1cccc(Cl)c1 [drawing 28] | 35 |  |  |  |

| SMILES | Rel. Activity [1] [%] | Km ([2]; partially purified enzyme) [µM] | Vmax [2, 3] | also measured |
| --- | --- | --- | --- | --- |
| CC(=O)c1ccc(Br)cc1 [drawing 29] | 40 |  |  |  |
| CC(=O)c1ccc(F)cc1 [drawing 30] | 40 |  |  |  |
| CCC(=O)c1ccccc1 [drawing 31] | 0 |  |  |  |
| CC(=O)C(Cl)Cl [drawing 33] | 60 |  |  |  |
| CC(=O)C(C)Cl (stereo not drawn) [drawing 34] | 105 |  |  |  |
| COCC(C)=O [drawing 35] | 53 |  |  |  |
| CCC(=O)C(C)C [drawing 37] | 51 |  |  |  |
| CCC(C)=O [drawing 38] | 48 |  |  |  |
| CCCC(C)=O [drawing 39] | 40 |  |  |  |
| CCCCCCC(C)=O [drawing 40] | 54 |  |  |  |
| CCCCCC(=O)CC [drawing 41] | 33 |  |  |  |
| CCCC(=O)CC [drawing 43] | 4 |  |  |  |
| COC(OC)C(C)=O [drawing 44] | 118 |  |  |  |
| CC=O [drawing 46] | 150 |  |  |  |
| CCC=O [drawing 47] | 127 |  |  |  |
| CC(C)C=O [drawing 48] | 178 |  |  |  |
| CC(C)C=O [isobutyraldehyde] |  |  |  | Acceptance as substrate by the KERed (in words) [1]: acceptable as substrates |
| COCC(C)=O [methoxy-2-propanone] |  |  |  | Acceptance as substrate by the KERed (in words) [1]: acceptable as substrates |
| CCC=O [propionaldehyde] |  |  |  | Acceptance as substrate by the KERed (in words) [1]: acceptable as substrates |
| CCC(=O)c1ccccc1 [propiophenone] |  |  |  | Acceptance as substrate by the KERed (in words) [1]: acceptable as substrates |
